From PMC9578020, “Design, synthesis, molecular modeling, and bioactivity evaluation of 1,10-phenanthroline and prodigiosin (Ps) derivatives and their Copper(I) complexes against mTOR and HDAC enzymes as highly potent and effective new anticancer therapeutic drugs” (Frontiers in Pharmacology, 2022) come the findings set out here.

“And” between values parts separate entries of the source, which are not always exact repeats. Identical values can stand only once. Like-named read-outs stand apart in the source and are kept apart here.

Data set [1] relates to HTB22. As to the kind of experiment: CCK8 anticancer activity / cytotoxicity test, HTB22. Type of data set: cell-based. Particulars: read-out: Approximate IC50, primary screening. As for the experimental part: (§1) The IC50 was calculated by SPSS statistics (IBM). […] All cytotoxicity tests were performed in six biological replicates.
(§2) The anticancer activity against 231BR is of highest interest. […] Figure 3 depicts the anticancer activities of these compounds.

In data set [2] the test system is CRL-1620 (CRL). Kind of data set: CCK8 anticancer activity / cytotoxicity test, CRL. It is filed as cell-based. The note with it: 48 h.
In data set [3] the test system is MDA-MB-231BR (231BR). As to the kind of experiment: CCK8 anticancer activity / cytotoxicity test, 231BR. Type of data set: cell-based. As for the experimental part: as §1, §2
In data set [4] the test system is MDA-MB-231 (231). Kind of data set: CCK8 anticancer activity / cytotoxicity test, 231. It is filed as cell-based, human.
In data set [5] the test system is HTB131. As to the kind of experiment: CCK8 anticancer activity / cytotoxicity test, HTB131. It is filed as cell-based.
Data set [6] can be described thus: CCK8 cytotoxicity test on normal cell line MCF10A. The note with it: human. On the procedure: (§3) MDA-MB-231 (231) and HTB131 were grown with RPIM-1640 medium (with 10% Fetal Bovine Serum and 2% Penicillin-Streptomycin Solution). MDA-MB-231BR (231BR), CRL-1620 (CRL), and MCF10A were grown with DMEM (with 10% Fetal Bovine Serum and 2% Penicillin-Streptomycin Solution). HTB22 was grown with EMEM (with 10% Fetal Bovine Serum and 2% Penicillin-Streptomycin Solution). Cell lines were taken out from liquid nitrogen and thawed in a 37°C water bath. After thawing, cell cultures were transferred to 75 cm^2 flasks and incubated at 37°C with 5% CO2 for 4–7 days. After reaching 80% of cell confluence, cells were ready for subculturing or testing.
(§4) Anticancer activity tests were performed using a Cell Counting Kit-8 (CCK8, SigmaAldrich) following manufacturer’s instruction ([Shen et al., 2016]). Briefly, 100 µl of diluted cell suspension (approximately 10000 cells) was transferred to 96-well plate, incubated at 37°C with 5% CO2 for 24 h. Then, the compounds were diluted into a serial of concentrations in DMSO. Next, 0.5 µl of diluted compounds were added to 100 µl of cell medium and gently mixed, resulting in the final concentration of DMSO at 0.5%. 100 µl of the compound contained medium were then used to replace the original medium and incubated at 37°C for 48 h. After incubation with compounds, 10 µl of CCK8 reagent was added to each well and mixed by gently tapping the plate. Then, the plate was incubated at 37°C for 2–4 h until the orange color was dark enough to measure. The plate was measured using a Multiskan microplate reader (Fisher Scientific) at 450 nm. The IC50 was calculated by SPSS statistics (IBM). […] All cytotoxicity tests were performed in six biological replicates. Each compound was performed two cycles of screening: primary screening using 10 times serial dilution to determine the approximate concentration and then secondary screening using a narrow concentration range to acquire the accurate IC50.
(§5) The newly synthesized molecules in which their binding affinities were predicted in silico were tested on five different breast cancer lines, MDA-MB-231 (231), MDA-MB-361 (361), HTB131, HTB22, and MDA-MB-231BR (231BR), and one brain cancer cell line, CRL-1620 (CRL). […] Among these cell lines, 231BR attracted most of our interest because it is a brain metastatic specific breast cancer cell line that has 100% rate of brain metastasis and cannot migrate to any other organs ([Yoneda et al., 2001]). The anticancer capacities of each compound were first screened by 10 times dilution to generate different molar concentrations ranging in 5 orders of magnitudes. This wide concentration range was applied for primary screening (Supplementary Table S3) to narrow down the targets. The approximate IC50 was estimated in the primary screening step and used to design the concentration range of the secondary cytotoxicity tests (Supplementary Table S4). […] Anticancer drug taxol (paclitaxel) was used as the reference to estimate the efficacy of each compound. […] The anticancer activity against 231BR is of highest interest. Meanwhile, the same treatments were performed against the normal breast cell line, MCF10A, to test their cytotoxicity. […] A negative logarithm of IC50 was applied to represent the corresponding anticancer activity.

Data set [7] concerns MCF10A. Kind of data set: CCK8 cytotoxicity test on normal cell line MCF10A. On the procedure: as §3, §4, §5
(Tetrazolium dyes change colour on reduction, which living cells bring about.)

The test system of data set [8] is MDA-MB-361 (361). Kind of data set: CCK8 anticancer activity / cytotoxicity test, 361. Type of data set: cell-based. The note with it: Homo sapiens. As for the experimental part:
as §1, §2

The mark [9] stands for this setting: HTB22, 48 h, 10 times serial dilution.
Setting [10] is: CRL, 10 times serial dilution, read-out: Approximate IC50, primary screening.
The mark [11] stands for this setting: 231BR, 48 h, 10 times serial dilution, read-out: Approximate IC50, primary screening.
[12] abbreviates: Homo sapiens, MCF-10A, 48 h, read-out: Approximate IC50, primary screening.

Consider `CCC1=N/C(=C\c2[nH]c(-c3ccn[nH]3)cc2OC)C=C1` [Compound L9], for which the IC50 in data set [1] (setting [9]), in data set [2] (setting [10]) and in data set [3] (setting [11]) was over 168 µM throughout.

With `CCC1=N/C(=C\c2[nH]c(-c3ncc[nH]3)cc2OC)C=C1` [Compound L10], the IC50 in data set [3] (setting [11]) turned out to be 285 µM.

Consider `CCC1=N/C(=C\c2[nH]c(-c3ccc4cc[nH]c4c3)cc2OC)C=C1` [Compound L13], for which the IC50 in data set [4] (Homo sapiens, MDA-MB-231, 231, 48 h, narrow concentration range, read-out: IC50, secondary cytotoxicity test) is 3490 nM; in data set [5] (HTB131, 48 h, narrow concentration range, read-out: IC50, secondary cytotoxicity test), 12.6 µM; in data set [2] (CRL, narrow concentration range, read-out: IC50, secondary cytotoxicity test) it was 6.53 µM; in data set [3] (setting [11]) it was 3.1 µM; in data set [3] (231BR, 48 h, narrow concentration range, read-out: IC50, secondary cytotoxicity test), 5.06 µM. Further, in data set [6] (MCF10A normal breast cells), the IC50 at 48 h was found to be 3.7 µM.

As to `CCC1=N/C(=C\c2[nH]c(-c3ccc4[nH]ccc4c3)cc2OC)C=C1` [Compound L14], the IC50 in data set [1] (setting [9]) and in data set [2] (setting [10]) was over 79 µM in each case.

As for `CCC1=N/C(=C\c2[nH]c(-c3cccc4cc[nH]c34)cc2OC)C=C1` [Compound L15], the IC50 in data set [3] (48 h, 231BR, 48 h, 10 times serial dilution, read-out: Approximate IC50, primary screening) amounted to 32 µM.

In the case of `CCC1=NC(=Cc2[nH]c(-c3cccn3C(=O)OC(C)(C)C)cc2OC)C=C1` [L ^7], the IC50 in data set [4] was 75.8 nM; in data set [7] it was 3.39 µM; in data set [3], 0.0463 µM. The “times lower cytotoxicity on normal cell line” value in data set [7] is recorded as “more than 80 times”.

Consider `CCCCCC1=C/C(=C/c2[nH]c(-c3ccc[nH]3)cc2OC)N=C1C` [Ps, Prodigiosin], for which the IC50 in data set [4] (Homo sapiens, MDA-MB-231, 48 h, read-out: Approximate IC50, primary screening) was 750 to 7500 nM; in data set [4] (Homo sapiens, MDA-MB-231, 48 h, read-out: IC50, secondary cytotoxicity test), 0.511 µg/mL and 1.58 µM; in data set [8] (MDA-MB-361, 48 h, read-out: Approximate IC50, primary screening, 361, 48 h, 10 times serial dilution) it was over 7.5 µM; in data set [8] (MDA-MB-361, 48 h, read-out: IC50, secondary cytotoxicity test, 361, 48 h, Table S4), over 75 µM; in data set [8] (MDA-MB-361, 48 h, read-out: IC50, secondary cytotoxicity test, 361, 48 h, increased drug concentration), 228 µM; in data set [8] (MDA-MB-361, 48 h, read-out: IC50, secondary cytotoxicity test, 361, 48 h, increased drug concentration (mg/mL)), 0.074 mg/mL. The IC50 was 0.75 to 7.5 µM in data set [5] (48 h, read-out: Approximate IC50, primary screening); 2.81 µM and 0.91 µg/mL in data set [5] (48 h, read-out: IC50, secondary cytotoxicity test); over 75 µM in data set [1] (48 h); 0.75 to 7.5 µM in data set [2] (read-out: Approximate IC50, primary screening); 4.64 µM and 1.5 µg/mL in data set [2] (read-out: IC50, secondary cytotoxicity test); 7.5 µM in data set [7] (setting [12]). In addition, the IC50 in data set [3] (48 h, read-out: IC50, secondary cytotoxicity test, 231BR, 48 h) came to 0.312 µg/mL; in data set [3] (48 h, read-out: IC50, secondary cytotoxicity test, 231BR, 48 h, narrow concentration range), 0.963 µM. For the same molecule, the IC50 at 48 h in data set [6] is 8.75 µM and 2.84 µg/mL.

Take `CC(=O)O[C@H]1C(=O)[C@@]2(C)[C@H]([C@H](OC(=O)c3ccccc3)[C@]3(O)C[C@H](OC(=O)[C@H](O)[C@@H](NC(=O)c4ccccc4)c4ccccc4)C(C)=C1C3(C)C)[C@]1(OC(C)=O)CO[C@@H]1C[C@@H]2O` [Taxol, paclitaxel, reference compound]: the IC50 in data set [4] (Homo sapiens, MDA-MB-231, 231, 48 h, 10 times serial dilution, read-out: Approximate IC50, primary screening) was 21.3 nM; in data set [8] (MDA-MB-361, 361, 48 h, 10 times serial dilution, read-out: Approximate IC50, primary screening), over 7.5 µM; in data set [5] (HTB131, 48 h, 10 times serial dilution, read-out: Approximate IC50, primary screening), 0.057 µM; in data set [2] (setting [10]), 0.028 µM; in data set [7] (setting [12]), over 7.5 µM; in data set [3] (setting [11]) it was 0.039 µM. Moreover, in data set [7] (normal cell line MCF10A relative to 231BR), the “times lower cytotoxicity on normal cell line” value is “more than 700 times”.
